Like-named read-outs stand apart in the source and are kept apart here.
Legend:
OATP1B3 = target: T1, OATP1B3 (Homo sapiens, UniProt Q9NPD5); test: OATP1B3 inhibition with fluorescent substrate 8-Fluo-cAMP in HEK293 cells; assay type: cell-based; settings: 2.5 µM 8-Fluo-cAMP, 5 min, 30 min preincubation
T1 construct: expressed in transfected cells; host or cells: HEK293 (recombinant baculovirus-mediated transduction)
T1 sequence (Q9NPD5 1-702): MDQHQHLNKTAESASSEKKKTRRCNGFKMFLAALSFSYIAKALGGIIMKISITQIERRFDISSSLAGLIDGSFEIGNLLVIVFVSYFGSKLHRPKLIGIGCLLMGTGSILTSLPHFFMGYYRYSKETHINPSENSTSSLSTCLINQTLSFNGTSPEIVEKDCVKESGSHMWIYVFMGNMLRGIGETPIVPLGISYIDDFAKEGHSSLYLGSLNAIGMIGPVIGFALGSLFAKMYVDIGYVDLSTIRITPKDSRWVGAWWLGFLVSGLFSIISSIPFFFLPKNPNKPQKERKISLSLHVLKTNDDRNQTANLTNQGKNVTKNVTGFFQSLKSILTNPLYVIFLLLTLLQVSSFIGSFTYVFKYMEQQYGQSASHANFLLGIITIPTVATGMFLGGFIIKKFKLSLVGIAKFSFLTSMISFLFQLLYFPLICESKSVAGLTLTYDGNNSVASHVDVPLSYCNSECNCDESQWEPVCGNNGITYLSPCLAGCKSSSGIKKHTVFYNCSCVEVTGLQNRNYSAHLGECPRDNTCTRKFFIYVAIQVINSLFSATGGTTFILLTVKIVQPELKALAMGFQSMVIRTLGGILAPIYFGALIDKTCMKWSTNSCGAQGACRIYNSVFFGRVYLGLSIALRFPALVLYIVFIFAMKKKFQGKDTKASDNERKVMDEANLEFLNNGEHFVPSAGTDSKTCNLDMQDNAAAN
Method: 8- (2- [Fluoresceinyl]aminoethylthio)adenosine- 3', 5'- cyclic monophosphate (8-Fluo-cAMP) was acquired from Biolog Life Science Institute (Bremen, Germany), 4′,5′-dibromofluorescein was acquired from Sigma-Aldrich (St. Louis, MO, USA) and 2′,7′-dichlorofluorescein was acquired from Santa Cruz Biotechnology (Dallas, TX, USA).
Inhibition studies with fluorescent substrates in OATP transduced HEK293 cells The concentrations of fluorescent probe substrates were 1 µM 2′,7′-dichlorofluorescein for OATP1B1, 2.5 µM 8-Fluo-cAMP for OATP1B3 and 1 µM 4′,5′-dibromofluorescein for OATP2B1, and these concentrations were selected to be within or below of previously reported […]
reported linear ranges of transport for these substrate-transporter combinations.1,2,4 8-Fluo-cAMP was dissolved in ultrapure water, while dimethyl sulfoxide (DMSO) was used for all other compounds. […] For the quantification of fluorescent substrates, cells were lysed with 120 µl of lysis solution (1% Triton X-100, 5 mM EDTA, 150 mM sodium chloride and 150 mM TRIC-hydrochloride and adjusted to pH 8 with sodium hydroxide) for 30 min at 300 RPM shaking before transferring 80 µl of samples to a transparent 96-well plate containing 20 µl of 0.5 M sodium hydroxide. […] The plates were measured with a fluorescent plate reader (Varioskan LUX from ThermoFisher Scientific). […]

[1] = cited from earlier work; for Total CL: mean value from IV studies
[2] = 125 mg PO, ref Sutherland et al. 1970 10
[3] = 250 mg PO, ref Bodey et al. 1972 20
[4] = 250 mg PO, ref Sutherland et al. 1970 10
[5] = 500 mg IV, ref Landersdorfer et al. 2007 15
[6] = 500 mg IV, ref Landersdorfer et al. 2008 17
[7] = 500 mg PO, ref Bodey et al. 1972 20
[8] = 750 mg PO, ref Røder et al. 1995 14
[9] = 1000 mg IV, ref Adam et al. 1983 18
[10] = 1000 mg IV, ref Landersdorfer et al. 2007 15
[11] = 1000 mg IV, ref Landersdorfer et al. 2008 17
[12] = 1000 mg IV, ref Wise et al. 1980 19
[13] = 1000 mg PO MD (day 9), ref Iversen et al. 2023 22
[14] = 1000 mg PO MD (day 27), ref Iversen et al. 2023 22
[15] = 1000 mg PO SD, ref Iversen et al. 2023 22
[16] = 1000 mg PO, ref Everts et al. 2020 16
[17] = 1000 mg PO, ref Gardiner et al. 2018 21
[18] = 6.25 mg/kg PO, ref Jusko et al. 1975 11
[19] = 250 mg IV, ref DeSante et al. 1980 7
[20] = 500 mg PO, ref Beringer et al. 2008 12
[21] = 500 mg PO, ref Gravenkemper et al. 1965 13
[22] = 500 mg PO, ref Røder et al. 1995 14
[23] = 1000 mg PO, ref Gravenkemper et al. 1965 13
[24] = 1000 mg PO, ref Putnam et al. 2005 9
[25] = 1000 mg PO, ref Røder et al. 1995 14

Cc1onc(-c2c(F)cccc2Cl)c1C(=O)N[C@@H]1C(=O)N2[C@@H]1SC(C)(C)[C@@H]2C(=O)O [Flucloxacillin]
IC50 (OATP1B3): 46.3 µM | AUC (mg*h/l) Obs [1, 2]: 8.28 mg·h/L | Cmax (mg/l) Obs [1, 2]: 5.8 mg/L | AUC (mg*h/l) Obs [1, 3]: 14.6 mg·h/L | Cmax (mg/l) Obs [1, 3]: 5.7 mg/L | AUC (mg*h/l) Obs [1, 4]: 14.4 mg·h/L | Cmax (mg/l) Obs [1, 4]: 11.0 mg/L | AUC (mg*h/l) Obs [1, 5]: 60.9 mg·h/L | Cmax (mg/l) Obs [1, 5]: 86.8 mg/L | AUC (mg*h/l) Obs [1, 6]: 54.8 mg·h/L | Cmax (mg/l) Obs [1, 6]: 87.7 mg/L | AUC (mg*h/l) Obs [1, 7]: 29.1 mg·h/L | Cmax (mg/l) Obs [1, 7]: 11.4 mg/L | Cmax (mg/l) Obs ([1]; 500 mg PO, ref Sutherland et al. 1970 10): 14.7 mg/L | AUC (mg*h/l) Obs [1, 8]: 67.8 mg·h/L | Cmax (mg/l) Obs [1, 8]: 34.5 mg/L | AUC (mg*h/l) Obs [1, 9]: 141 mg·h/L | Cmax (mg/l) Obs [1, 9]: 236 mg/L | AUC (mg*h/l) Obs [1, 10]: 122 mg·h/L | Cmax (mg/l) Obs [1, 10]: 167 mg/L | AUC (mg*h/l) Obs [1, 11]: 113 mg·h/L | Cmax (mg/l) Obs [1, 11]: 173 mg/L | AUC (mg*h/l) Obs [1, 12]: 73.6 mg·h/L | Cmax (mg/l) Obs [1, 12]: 140 mg/L | AUC (mg*h/l) Obs [1, 13]: 56 mg·h/L | Cmax (mg/l) Obs [1, 13]: 20 mg/L | AUC (mg*h/l) Obs [1, 14]: 64 mg·h/L | Cmax (mg/l) Obs [1, 14]: 24 mg/L | AUC (mg*h/l) Obs [1, 15]: 51 mg·h/L | Cmax (mg/l) Obs [1, 15]: 21 mg/L | AUC (mg*h/l) Obs [1, 16]: 82 mg·h/L | Cmax (mg/l) Obs [1, 16]: 31 mg/L | AUC (mg*h/l) Obs [1, 17]: 71.6 mg·h/L | Cmax (mg/l) Obs [1, 17]: 27.4 mg/L | ka reported range [1]: 0.17 to 18.2 h⁻¹ | CLR ([1]; mean from reported IV studies): 5.1 L/h | Total CL [1]: 7.75 L/h

Cc1onc(-c2c(Cl)cccc2Cl)c1C(=O)N[C@@H]1C(=O)N2[C@@H]1SC(C)(C)[C@@H]2C(=O)O [Dicloxacillin]
IC50 (OATP1B3): 4.28 µM | AUC (mg*h/l) Obs [1, 18]: 33.8 mg·h/L | Cmax (mg/l) Obs [1, 18]: 18.4 mg/L | AUC (mg*h/l) Obs [1, 19]: 23.8 mg·h/L | Cmax (mg/l) Obs [1, 19]: 56.5 mg/L | AUC (mg*h/l) Obs [1, 4]: 19.1 mg·h/L | Cmax (mg/l) Obs [1, 4]: 11.0 mg/L | AUC (mg*h/l) Obs [1, 20]: 36.6 mg·h/L | Cmax (mg/l) Obs [1, 20]: 11.1 mg/L | AUC (mg*h/l) Obs [1, 21]: 41.1 mg·h/L | Cmax (mg/l) Obs [1, 21]: 17.4 mg/L | AUC (mg*h/l) Obs [1, 22]: 30.8 mg·h/L | Cmax (mg/l) Obs [1, 22]: 17.3 mg/L | AUC (mg*h/l) Obs [1, 8]: 66.8 mg·h/L | Cmax (mg/l) Obs [1, 8]: 34.4 mg/L | AUC (mg*h/l) Obs ([1]; 1000 mg IV, ref Nauta and Mattie 1976 8): 114 mg·h/L | AUC (mg*h/l) Obs [1, 23]: 72.4 mg·h/L | Cmax (mg/l) Obs [1, 23]: 28.9 mg/L | AUC (mg*h/l) Obs [1, 24]: 78.0 mg·h/L | Cmax (mg/l) Obs [1, 24]: 31.4 mg/L | AUC (mg*h/l) Obs [1, 25]: 82.5 mg·h/L | Cmax (mg/l) Obs [1, 25]: 30.7 mg/L | fraction absorbed, range reported ([1]; dicloxacillin capsules): 35 – 76% | Total CL [1]: 8.885 L/h
